{
  "source": "patent US20080021042A1",
  "about": "“Composition For Controlling Neuropathic Pain” (priority 2004, published 2008)",
  "key": {"motor coordination": {"test_system": "motor coordination", "assay": "motor coordination test (mice rotating rod test, Rota-rod)", "type": "in vivo, mouse", "settings": "30 mg/kg orally, 16 rpm, cut-off 60 seconds, FIG. 4", "experimental": "The effect of the compound of Example 1 on motor coordination was evaluated by means of mice rotating rod test.\nFive male BALB/c, 6-7 weeks old mice per group were used. The mouse was trained for 2 or more days so that it could remain on the Rota-rod treadmill (Ugo Basile) in 3 cm in diameter rotating at 16 rpm for at least 60 seconds when it was placed on the rod with the head directed against the direction of rotation. Before the evaluation, three trials were conducted with 10 min or more intervals and the mice which could remain on the rod more than 60 seconds in all three times were selected for the evaluation. The selected mice were divided into test groups.\nThe time obtained in the third trial was used as the before administration value. Mice were orally received 30 mg/kg of the compound of Example 1 or gabapentin and placed on the rotating rod. The duration of time the mouse remained on the rod was recorded. A cut-off time of 60 seconds was employed and when an animal could remain more than 60 seconds, the time was recorded as 60 seconds."}, "neuropathic pain": {"test_system": "neuropathic pain", "settings": "oral administration, in general; cited from earlier work"}},
  "data": [
    {"smiles": "NCC1(CC(=O)O)CCCCC1", "note": "[gabapentin]", "values": [
      {"measurement": "duration of time the mouse remained on the rotating rod", "setting": "motor coordination", "result": "no reduction of the remaining time"},
      {"measurement": "onset of analgesic action", "setting": "neuropathic pain", "result": "1 to 2", "unit": "h"}
    ]}
  ]
}
